Laboratory results taken from ChEMBL document CHEMBL1201862, “PubChem BioAssay data set” (2004).
Calls of active or inactive are those of the source.

Tests used:
[1] = molecular target: T1, Heat shock factor protein 1 (Mus musculus, UniProt P38532); assay: enhancement of HSF1-driven luciferase signal – cell-based, NIH3T3, luminescence, dose retest, confirmation (AID 435004); type: functional;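 also: stress induced by proteasome inhibitor MG132 added 30 min after compound; luciferase reporter driven by HSF1 response element in NIH3T3 cells; actives raise luminescence as potentiators of the MG132 stress response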
T1 sequence (P38532 whole entry): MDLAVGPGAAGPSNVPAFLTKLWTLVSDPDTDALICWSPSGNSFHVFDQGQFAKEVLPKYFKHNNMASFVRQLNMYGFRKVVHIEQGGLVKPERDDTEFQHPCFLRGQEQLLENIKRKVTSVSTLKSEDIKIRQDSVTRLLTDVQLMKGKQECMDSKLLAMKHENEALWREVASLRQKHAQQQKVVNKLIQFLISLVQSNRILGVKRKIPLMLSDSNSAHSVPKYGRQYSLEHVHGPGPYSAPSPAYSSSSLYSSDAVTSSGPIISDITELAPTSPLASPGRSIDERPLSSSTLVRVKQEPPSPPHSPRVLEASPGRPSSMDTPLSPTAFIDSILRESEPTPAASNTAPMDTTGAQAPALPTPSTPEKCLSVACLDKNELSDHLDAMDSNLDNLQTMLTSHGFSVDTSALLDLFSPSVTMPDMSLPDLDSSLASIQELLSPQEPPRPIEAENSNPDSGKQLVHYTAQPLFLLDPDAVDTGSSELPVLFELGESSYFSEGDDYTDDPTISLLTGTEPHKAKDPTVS

[2] = viability of uninfected HEp-2 cells – cell-based, HTS, cytotoxicity control for RSV inhibitor project, dose response (AID 2410); type: functional; conditions: human respiratory syncytial virus
[3] = system: Streptococcus sp. 'group A'; assay: Streptococcus pyogenes SK(-)GAS viability under kanamycin – luminescence, BacTiterGlo, confirmation, counter-screen for streptokinase expression inhibitor project, dose response (AID 1900); type: functional, organism-based
[4] = molecular target: T2, Streptokinase A (Streptococcus pyogenes serotype M1, UniProt P10520); assay: viability-normalized secreted streptokinase activity reduction – plasminogen activation absorbance, OD405, dose response (AID 1914); type: functional, Streptococcus pyogenes M1 GAS;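 also: secreted streptokinase activity via plasminogen activation per viability signal from cell pellet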
T2 sequence (P10520 whole entry): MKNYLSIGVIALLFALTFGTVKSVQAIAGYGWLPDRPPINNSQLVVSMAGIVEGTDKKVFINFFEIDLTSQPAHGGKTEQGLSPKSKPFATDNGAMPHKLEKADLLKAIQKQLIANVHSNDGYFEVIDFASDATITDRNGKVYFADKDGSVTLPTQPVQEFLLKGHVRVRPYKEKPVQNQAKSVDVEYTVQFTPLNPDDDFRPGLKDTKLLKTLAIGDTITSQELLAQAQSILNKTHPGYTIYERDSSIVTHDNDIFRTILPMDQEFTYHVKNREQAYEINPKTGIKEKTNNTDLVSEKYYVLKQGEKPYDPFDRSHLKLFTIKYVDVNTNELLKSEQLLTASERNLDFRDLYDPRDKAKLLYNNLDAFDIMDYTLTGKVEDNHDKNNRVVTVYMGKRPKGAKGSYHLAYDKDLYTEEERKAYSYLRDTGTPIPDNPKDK

[5] = Luminescence Cell-Based Dose Retest to Confirm Inhibitors of Cancer Stem Cells. [Related pubchem assays (depositor defined):AID2717, AID2721]; type: functional; conditions: Homo sapiens
[6] = system: Streptococcus; assay: GAS UMAA2166 growth inhibition – luminescence, BacTiterGlo, counter-screen for streptokinase expression inhibitor project, dose response (AID 1915); type: functional, organism-based;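 also: potency for reduction of bacterial viability or growth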
[7] = molecular target: T3, Cytochrome P450 1A2 (Homo sapiens, UniProt P05177);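 also: PubChem cytochrome P450 panel assay, CYP1A2 panel member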
T3 sequence (P05177 whole entry): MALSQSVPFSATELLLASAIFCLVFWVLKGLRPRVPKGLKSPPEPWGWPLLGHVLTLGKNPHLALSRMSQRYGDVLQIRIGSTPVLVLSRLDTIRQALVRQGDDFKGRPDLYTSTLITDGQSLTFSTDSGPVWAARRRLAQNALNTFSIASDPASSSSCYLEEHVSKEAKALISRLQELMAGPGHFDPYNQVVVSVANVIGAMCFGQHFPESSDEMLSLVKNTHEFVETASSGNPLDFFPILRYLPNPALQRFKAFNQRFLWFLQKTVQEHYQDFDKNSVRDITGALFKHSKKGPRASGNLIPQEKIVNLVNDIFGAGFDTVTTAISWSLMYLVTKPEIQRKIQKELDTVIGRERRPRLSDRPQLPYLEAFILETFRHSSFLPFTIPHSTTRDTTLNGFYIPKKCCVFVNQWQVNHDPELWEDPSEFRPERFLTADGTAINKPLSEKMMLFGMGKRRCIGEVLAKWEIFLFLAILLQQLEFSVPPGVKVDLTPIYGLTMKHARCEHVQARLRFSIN

[8] = molecular target: T4, Rac GTPase-activating protein 1 (Homo sapiens, UniProt Q9H0H5); assay: blockers of MgcRacGAP-driven Rac1 GTP hydrolysis – biochemical, ADP Hunter fluorescence, primary and confirmatory, confirmation (AID 624330); type: functional
T4 sequence (Q9H0H5 whole entry): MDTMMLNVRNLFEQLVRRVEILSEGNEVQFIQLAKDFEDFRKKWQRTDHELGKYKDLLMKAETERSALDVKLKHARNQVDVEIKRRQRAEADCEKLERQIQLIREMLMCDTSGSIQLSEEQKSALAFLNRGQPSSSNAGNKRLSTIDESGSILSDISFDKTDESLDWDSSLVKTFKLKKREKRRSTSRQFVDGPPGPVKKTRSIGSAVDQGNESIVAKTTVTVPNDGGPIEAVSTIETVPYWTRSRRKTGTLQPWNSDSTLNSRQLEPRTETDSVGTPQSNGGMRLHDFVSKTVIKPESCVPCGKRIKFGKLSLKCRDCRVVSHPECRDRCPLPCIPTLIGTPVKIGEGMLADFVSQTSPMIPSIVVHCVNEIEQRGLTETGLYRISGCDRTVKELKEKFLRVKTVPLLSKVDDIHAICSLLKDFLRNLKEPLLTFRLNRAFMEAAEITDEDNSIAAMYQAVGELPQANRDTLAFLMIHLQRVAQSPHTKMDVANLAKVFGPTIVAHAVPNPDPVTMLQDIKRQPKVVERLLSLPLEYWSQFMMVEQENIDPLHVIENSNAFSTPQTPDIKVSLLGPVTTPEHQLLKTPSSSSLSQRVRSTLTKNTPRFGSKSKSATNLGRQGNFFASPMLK

[9] = NIH3T3 cell viability loss – ATP luminescence, mouse fibroblasts, counter-screen, dose response (AID 2010); type: functional, cell-based;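 also: cells exposed to compound for about 90 hours before reading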
[10] = Trypanosoma cruzi growth suppression in host cells – NIH3T3 host cells, beta-gal luminescence, confirmation (AID 2044); type: functional, cell-based;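 also: intracellular parasites grown in NIH/3T3 mouse fibroblasts as host cells; luminescent beta-galactosidase reporter signal from transgenic T. cruzi replicating inside host cells; inhibitors lower the luminescence signal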
[11] = P. falciparum Dd2 growth inhibitors, dose response, SYBR Green, cherry-picked samples (AID 1159567); type: functional, cell-based

SMILES: Cc1ccc(-c2cnc3cc(C)nn3c2)cc1
- EC50 [1]: > 260 µM (inactive)

SMILES: CCn1cc(C2=NC(c3ccccc3)CO2)c2ccccc21 (stereo not given)
- CC50 [2]: 14.8 µM (active)

SMILES: Cc1cccc(NC(=O)c2[nH]cnc2C(=O)N[C@@H](Cc2ccccc2)C(=O)OCc2ccccc2)c1
- CC50 [2]: 46.3 µM (active)

SMILES: Cc1cccc(NC(=O)CCc2c(C)nn(-c3ccc(N4CCCCC4)nn3)c2C)c1
- EC50 [1]: > 260 µM (inactive)

SMILES: O=C1N=C(Nc2ccc(Cl)cc2)SC1Cc1cccc(Cl)c1Cl (stereo not given)
- EC50 [3]: 3.91 µM (active)
- EC50 [4]: 131 µM (active)
- AC50 [5]: 13.2 µM (active)
- EC50 [6]: > 150 µM (not active)

SMILES: Cc1ccc(C)c(-c2cc(C(=O)Nc3sc(C)c(C)c3C(N)=O)c3ccccc3n2)c1
- EC50 [3]: 2.81 µM (active)
- EC50 [4]: 4.64 µM (active)
- AC50 [7]: 3.16 µM (inconclusive)
- CC50 [2]: 9.97 µM (active)
- EC50 [6]: > 150 µM (not active)

SMILES: Cc1ccc2c(c1)/C(=C/c1ccc(F)cc1)C(=O)N2
- EC50 [1]: > 260 µM (inactive)

SMILES: CCC(C)N1C(=O)/C(=C/NNc2ccccc2)C(=O)NC1=S (stereo not given)
- EC50 [3]: > 150 µM (not active)
- EC50 [4]: > 150 µM (not active)
- AC50 [5]: 2.24 µM (active)
- EC50 [6]: > 150 µM (not active)

SMILES: COC(=O)/C(C#N)=C/c1c(N2CCCCCC2)nc2c(C)cccn2c1=O
- EC50 [1]: > 260 µM (inactive)

SMILES: Cc1ccc(OCC(=O)N2CCN(CC3CC4C=CC3C4)CC2)cc1 (stereo not given)
- IC50 [8]: 293 µM (active)

SMILES: c1ccc(-c2cc(-c3ccc(N4CCOCC4)cc3)nc3ccccc23)cc1
- CC50 [2]: > 50 µM (active)

SMILES: Cc1cc(N)n(-c2ccc(S(N)(=O)=O)cc2[N+](=O)[O-])n1
- AC50 [5]: > 195 µM (inactive)

SMILES: CC(C)n1nc(C(=O)Nc2nnc(SCc3c(Cl)cccc3Cl)s2)c2ccccc2c1=O
- EC50 [3]: 2.09 µM (active)
- EC50 [4]: > 150 µM (not active)
- EC50 [6]: 116 µM (active)

SMILES: O=C(CCn1c(=O)oc2ccccc21)Nc1ccccc1
- EC50 [1]: > 260 µM (inactive)

SMILES: O=C(c1ccc(N2CCN(C3CC(=O)N(Cc4cccs4)C3=O)CC2)cc1)c1cccnc1 (stereo not given)
- CC50 [2]: 24.4 µM (active)

SMILES: CN(C)CCCn1c(SCc2ccc(Cl)cc2)nnc1-c1ccncc1
- IC50 [8]: 121 µM (active)

SMILES: CCOC(=O)c1c(C)[nH]c(C(=O)CN2CCN(CC)CC2)c1C
- IC50 [8]: 60.6 µM (active)

SMILES: CCOc1cc(CNc2ccc3c(c2)OCCO3)cc(Br)c1OCC(N)=O
- IC50 [8]: 99.3 µM (active)

SMILES: Cc1ccccc1C(=O)Nc1ccc(N2CCCC2)cc1
- IC50 [8]: 79.7 µM (active)

SMILES: CCc1ccc(Nc2nc(N)nc(CSc3nc4ccccc4s3)n2)cc1
- AC50 [5]: > 195 µM (inactive)

SMILES: O=C(NNc1cccc(Cl)n1)Nc1ccc(Cl)cc1
- EC50 [1]: > 260 µM (inactive)

SMILES: Cc1ccc(Nc2nc(N)c([N+](=O)[O-])c(NCc3ccco3)n2)cc1C
- AC50 [5]: 6.48 µM (active)

SMILES: CC(c1ccc(F)cc1)n1c(S)nnc1Cn1ncc2ccccc2c1=O (stereo not given)
- EC50 [1]: > 260 µM (inactive)

SMILES: O=[N+]([O-])c1ccc(-c2csc(Nc3ccccc3)[n+]2Cc2ccccc2)cc1
- EC50 [1]: 131 µM (active)

SMILES: Cc1ccccc1[C@@]1(C)ON(c2ccccc2C(F)(F)F)C1=O
- CC50 [2]: 21.9 µM (active)

SMILES: CCCC(O)(c1ccc(Br)cc1)C(CN1CCOCC1)c1ccc(Cl)cc1 (stereo not given)
- EC50 [3]: 7.94 µM (active)
- EC50 [4]: 12.1 µM (active)
- EC50 [6]: 72.1 µM (active)

SMILES: O=C(Nc1ccccn1)c1ccc2ccccc2c1O
- IC50 [8]: 73 µM (active)

SMILES: Cc1ccc(-n2nc3c(=O)n(CCCC(=O)NCCc4ccccc4C)nc(C)c3c2C)cc1
- CC50 [2]: > 50 µM (active)

SMILES: COc1ccccc1C(=O)NCCCNC(=O)c1ccccn1
- EC50 [1]: > 260 µM (inactive)

SMILES: CCOc1ccc(CNC(=O)c2cccc(NC(=O)C3=C(C)OCCS3)c2)cc1
- EC50 [1]: > 260 µM (inactive)

SMILES: COc1ccc(-c2sc3ccc(N4CCOCC4)cc3c2C#CCCO)cc1
- AC50 [5]: 3 µM (active)

SMILES: CN(C)c1ccc(C=Cc2cnccn2)cc1
- IC50 [8]: 38.6 µM (active)

SMILES: C[C@@H]1CN([C@H](C)CO)C(=O)c2cc(NC(=O)Nc3ccc(C(F)(F)F)cc3)ccc2O[C@H]1CN(C)S(=O)(=O)c1ccc(Cl)cc1
- AC50 [5]: 2.71 µM (active)

SMILES: COc1cc(/C=C/C(C)=NNc2ccccc2)ccc1O
- IC50 [8]: 51.9 µM (active)

SMILES: CCOC(=O)N1CCC(/N=c2\c(O)c(O)\c2=N/c2cccc(CC)c2)CC1
- CC50 [2]: 39.3 µM (active)

SMILES: O=C(Cn1cc(C(F)(F)F)ccc1=O)N/N=C/c1ccc(O)cc1
- IC50 [8]: 95.1 µM (active)

SMILES: Cc1cccc(C)c1NC(=S)N/N=C/c1ccc(OCCC(C)C)cc1
- EC50 [3]: 8.34 µM (active)
- EC50 [4]: 16.9 µM (active)
- EC50 [9]: > 60 µM (inconclusive)
- EC50 [10]: 2.02 µM (active)
- EC50 [6]: 21.9 µM (active)

SMILES: C[C@H](CCC(=O)O)[C@H]1CC[C@H]2[C@@H]3CC[C@@H]4CC(=O)CC[C@]4(C)[C@H]3CC(=O)[C@]12C
- EC50 [1]: > 260 µM (inactive)

SMILES: COc1cccc(CN2[C@@H](CO)[C@H](c3ccccc3)C23CN(C(=O)C2CCCC2)C3)c1
- AC50 [11]: 5.77 µM (active)

SMILES: CCC(=O)N1CC2(C1)CN(Cc1cccc(Cl)c1)[C@H](CO)c1c2c2ccc(OC)cc2n1C
- AC50 [11]: 10.5 µM (active)

SMILES: CC(C)NC(=O)N1CCCCN2[C@H](CO)[C@@H](c3ccc(C#C[C@H](C)O)cc3)[C@@H]2C1
- AC50 [11]: 19.5 µM (active)

SMILES: CO[C@H]1CN(C)C(=O)c2ccc(NC(=O)c3cccc(Oc4ccccc4)c3)cc2OC[C@@H](C)NC[C@H]1C
- AC50 [11]: 7.72 µM (active)

SMILES: CNC[C@H]1Oc2ncc(-c3ccc(OC)cc3)cc2C(=O)N([C@H](C)CO)C[C@H]1C
- AC50 [11]: 7.75 µM (active)

SMILES: CCC(=O)N1CCC2(CC1)CN(Cc1ccc(Cl)cc1)[C@H](CO)c1[nH]c3cc(OC)ccc3c12
- AC50 [11]: 3.07 µM (active)

SMILES: OC[C@H]1[C@@H](c2ccc(-c3cccnc3)cc2)[C@H]2CN(CC3CC3)CCCCN21
- AC50 [11]: 6.52 µM (active)

SMILES: COc1cccc(CN2[C@@H](CO)[C@H](c3ccccc3)C23CN(C(=O)C2CCOCC2)C3)c1
- AC50 [11]: 7.03 µM (active)

SMILES: COc1ccc2c3c([nH]c2c1)[C@@H](CO)N(Cc1ccccc1Cl)CC31CCN(C(=O)C2CC2)CC1
- AC50 [11]: 5.82 µM (active)
